Legend:
[1] = molecular target: T1, PAF binding, dog platelets (Canis lupus familiaris, UniProt A0A8I3NSH0); experiment: PAF Binding Assay (3H-PAF binding to washed dog platelets); settings: 10 minutes at room temperature
T1 sequence (A0A8I3NSH0 1-343): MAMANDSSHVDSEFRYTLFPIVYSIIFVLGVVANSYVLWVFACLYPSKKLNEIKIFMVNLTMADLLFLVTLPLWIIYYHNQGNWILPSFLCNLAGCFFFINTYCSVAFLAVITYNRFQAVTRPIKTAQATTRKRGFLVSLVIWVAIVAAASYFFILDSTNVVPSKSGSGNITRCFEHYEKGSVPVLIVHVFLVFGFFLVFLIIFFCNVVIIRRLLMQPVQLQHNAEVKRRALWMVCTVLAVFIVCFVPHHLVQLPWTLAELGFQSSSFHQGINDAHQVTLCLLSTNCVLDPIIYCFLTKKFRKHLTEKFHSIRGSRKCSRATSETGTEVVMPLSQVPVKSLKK
Procedure: The binding assay was performed in 400 μl polyethylene microcentrifuge tubes (Beckman) containing 50 μl of an oil mixture of 2 parts Siliconol AR200 (Serva): 1 part Silicone Fluid (Arthur H. Thomas). Buffer, standards, or analogs 150 μl total volume) were added to the tubes. Radiolabelled ^3 H-PAF (50 μl) was then added to the tubes. The reaction was started by the addition of 50 μl of dog platelets (2×10^7 platelets). The tubes were capped, inverted several times to mix, and incubated for 10 minutes at room temperature. The platelets were separated from the incubation mixture by centrifuging 1 minute in a Beckman Microfuge B centrifuge. The tip of the microfuge tube was cut off, and the platelets were washed out of the tip with 200 μl of 50% methanol (Burdick and Jackson). Aquasol (NEN, 10 ml) was added and the radioactivity in the samples was determined using an LS 8100 Beckman liquid scintillation counter linked to a Techtran tape recorder. Data was processed through an in-house computer system. Alternatively, radioactivity was determined using a Searle Mark III liquid scintillation counter linked to a Iso-Data microprocessor.
Blood was collected from anesthesized or unanesthesized dogs into 5ml plastic centrifuge tubes containing 3.8% sodium citrate as the anticoagulant (1 volume of citrate/9 volumes of blood). The red cells were removed by centrifugation for 15 minutes at 600 rpm (100-125 g) at room temperature. An aliquot of the supernatant platelet rich Plasma (PRP) was saved for cell counting and the remainder was acidified to pH 6.5 with 0.15M citric acid. The platelet pellet was obtained after a 10 minute centrifugation at 2000 rpm (1000 g) at room temperature. Washed platelets were prepared by resuspending the platelet pellet once with PBS containing 1 mM EDTA, centrifuging as noted, and then resuspending the platelets in 0.1% BSA-PBS. An aliquot of the washed platelets was counted, platelets used for binding assays were diluted to 2×10^7 platelets/assay tube (4×10^8 platelets/ml).

[2] = system: PAF-Induced Platelet Count Decrease; experiment: PAF-Induced Platelet Count Decrease; type: in vivo, guinea pig; settings: for inhibition in vivo at 3 mg/kg: Cavia porcellus, Platelet, 0.25 h, iv, 15 minutes pretreatment time, read-out: PAF-Induced Platelet Count Decrease % Inhibition, i.v.
Procedure: Male Hartley guinea pigs weighing between 500 and 900 grams were fed standard guinea pig chow and tap water ad libitum. PAF was solubilized in ethanol and stored as a 2 mM stock solution at -70° C. The stock solution of PAF was diluted to […] in Tris buffer pH 7.4 and 0.1% BSA for all experiments.
Guinea pigs were anesthetized with urethane (1.6 g/kg, i.p.). A catheter (PE50) was introduced into the right carotid artery for withdrawing blood. A second catheter PE10) was introduced into the jugular vein for injecting drugs and for administering the PAF challenge (75 ng/kg, i.v.). A control blood sample was obtained and platelets were counted in a whole blood platelet analyzer. PAF was then given and blood samples were taken 15, 30, and 60 seconds after the challenge for platelet counts. Fifteen minutes later, selected concentrations of the test compound were solubilized in DMSO and injected intravenously into a group of 4-6 animals. Only one concentration of the test drug was used in each animal group. Fifteen minutes after drug injection, blood samples were taken before and 15, 30, and 60 sec after the PAF challenge, and analyzed for platelet number.
Animals were anesthetized with sodium pentobarbital (35 mg/kg. i.p.) and the carotid artery and jugular vein were cannulated as described above. The cannulae were exteriorized at the base of the neck and the animals were allowed to recover. Conscious, unrestrained guinea pigs which were allowed to recover from surgery for at least 18 hours were used in the experiments. The animals were challenged two times with PAF (120 ng/kg, i.v.); the first to establish a consistent response to PAF and the second to serve as a control from the PAF challenge. Blood samples were taken before and 15, 30, and 45 seconds after PAF challenge and platelets were counted. Thirty minutes after the control PAF challenge, the animals were orally dosed with either gum acacia or the test compound. Animals were then challenged with PAF at 1, 3, 5, and 24 hours after the administration of the drug.
The % change, i.e., the difference in platelet number before and after PAF challenge was calculated by: [formula] The % activity of drug was then determined by
Statistical significance (p≤0.05) of the difference between the mean PAF control and mean drug treated activity was determined with the pared Students's t-test.

[3] = molecular target: T2, Thromboxane Synthase (TXA2 Syn.) (Homo sapiens, UniProt P24557); experiment: TXA2 Synthesis Inhibition (thromboxane synthase, microsomal fractions from human platelets); type: biochemical; settings: human platelet microsomes, 10 μM 14C-PGH2, 22°, 2 minutes
T2 construct: microsomal fractions from human platelets as enzyme source; from tissue; host or cells: microsomal fractions from human platelets
T2 sequence (P24557 1-533): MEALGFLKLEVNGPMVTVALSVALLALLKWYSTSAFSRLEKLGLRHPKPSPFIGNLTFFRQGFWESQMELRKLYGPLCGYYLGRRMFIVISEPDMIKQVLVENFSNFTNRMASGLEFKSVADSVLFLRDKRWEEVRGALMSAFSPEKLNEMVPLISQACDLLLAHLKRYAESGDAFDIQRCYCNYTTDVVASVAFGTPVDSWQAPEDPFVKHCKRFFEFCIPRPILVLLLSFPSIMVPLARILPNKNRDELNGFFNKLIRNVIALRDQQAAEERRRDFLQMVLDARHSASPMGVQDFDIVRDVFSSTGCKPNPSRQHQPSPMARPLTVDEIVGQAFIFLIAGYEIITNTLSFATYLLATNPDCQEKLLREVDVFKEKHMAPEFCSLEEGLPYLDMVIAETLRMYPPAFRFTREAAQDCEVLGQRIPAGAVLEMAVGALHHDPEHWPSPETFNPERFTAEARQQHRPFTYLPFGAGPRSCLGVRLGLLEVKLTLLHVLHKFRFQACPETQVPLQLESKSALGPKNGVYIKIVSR
Procedure: Thromboxane synthase inhibitory activity is measured by following the conversion of ^14 C-[…] using microsomal fractions from human platelets as enzyme source. In the aqueous incubation medium. The TXA2 decomposes rapidly into TXB2 . The amount of TXA2 syn. is adjusted so that under the conditions of the assay approximately 80-90% of the substrate. PGH2, is converted to product in control tubes. To prepare ^14 C-PGH2, ^14 C-AA(50-60mCi/mmole; Rose Chem.) is incubated with sheep seminal vesicular gland microsomes for 1.5 min. at 37° and then the ^14 C-PGH2 is extracted with diethylether, purified on columns of Sephadex LH-20 or silicic acid, and stored in acetone at -70° C. Incubations are done as follows. Sufficient ^14 C-PGH2 to yield a final substrate concentration of 10 μM ( 30,000 cpm) is added to the incubation tubes and then the acetone is removed under nitrogen. The tubes are placed in an ice bath and then 215 μl of ice cold phosphate buffered saline, 10 μof ethanol (control) or of test drug in ethanol, and 25 μl of the microsomal suspension are added with mixing in that order as rapidly as possible. The tubes are incubated at 22° for 2 minutes, the reaction is stopped and then the radioactive products and the unconverted PGH2 are extracted and analyzed by thin layer chromatography. The amount of ^14 C-PGH2 converted to products is analyzed by thin layer chromatography. The amount of ^14 C-PGH2 converted to products was used as a measure of TXA synthase activity. Inhibitors were tested initially at a concentration of 100 μM.

[4] = system: PAF-Induced Bronchoconstriction; experiment: PAF-Induced Bronchoconstriction Assay; type: in vivo, guinea pig; settings: Cavia porcellus; for inhibition in vivo at 1 mg/kg: 1 min, 1 mg/kg iv, 1 minute pretreatment
Procedure: The in vivo ability of compounds to inhibit PAF-induced bronchoconstriction in guinea pigs was assessed by the intravenous and oral routes of administration. The intravenous technique utilized male guinea pigs (Hartley strain, Charles River) weighing 400-600 g. Animals were anesthetized with urethane (2 g/kg) intraperitoneally and a polyethylene cannula was inserted into the jugular vein for intravenous drug administration. Tracheal pressure ([…]) was recorded from a Statham pressure transducer (P 32 AA). Propranolol was administered 5 minutes prior to challenge with PAF. Two minutes later spontaneous breathing was arrested with succinylcholine chloride (1.2 mg/kg) administered intravenously, and the animals were ventilated with a Harvard (Model 680) small animal respirator set at 40 breaths/min and 4.0 cc stroke volume. Control vehicle or test drug was administered through the cannula into the jugular vein 1 minute before the animals were challenged with a maximum constrictory dose of PAF (1.0 μg/kg) given intravenously. The change in tracheal pressure was averaged for four control and four drug-treated animals and percent inhibition was calculated.
For determination of oral activity, animals were dosed with test compound or vehicle two hours prior to challenge with PAF (1.0 μg/kg, i.v.).
The change in tracheal pressure is determined by subtracting the steady state baseline achieved after administration of succinylcholine from the peak bronchoconstriction seen after challenge with PAF. The mean change in tracheal pressure is calculated for each test compound and compared to the mean change in tracheal pressure for the control animals to give the percent inhibition of bronchoconstriction. The standard error is calculated as the standard error of the mean.

[5] = system: PAF-Induced Platelet Count Decrease; experiment: PAF-Induced Platelet Count Decrease; type: in vivo, guinea pig; settings: 30 mg/kg, 2 hours, pretreatment

Structure (SMILES) | IC50 [1] | inhibition in vivo at 3 mg/kg [2] | IC50 [3] | inhibition in vivo at 1 mg/kg [4] | inhibition in vivo at 50 mg/kg ([4]; 50 mg/kg, po, 2 hours pretreatment) | PAF-Induced Platelet Count Decrease % Inhibition, po [5] | PAF-Induced Platelet Count Decrease % Inhibition, po ([2]; 100 mg/kg, po, 3 hours, pretreatment)
Cc1ccc(-c2ccc(C(=O)NC(C)CCCc3cccnc3)cc2)cc1C (racemic) [(rac.)-3',4'-Dimethyl-N-[1-methyl-4-(3-pyridinyl)butyl][1,1'-biphenyl]-4-carboxamide] | 200 nM | 12% | 100 to 1000 nM | – | – | – | –
COc1cccc(-c2ccc(C(=S)NC(C)CCCc3cccnc3)cc2)c1 (racemic) [(rac.)-3'-Methoxy-N-(1-methyl-4-(3-pyridinyl)butyl][1,1'-biphenyl]-4-carbothioamide] | 120 nM | 6% | 100 to 1000 nM | 16 ± 14% | – | – | –
COc1ccc(-c2ccc(C(=S)NC(C)CCCc3cccnc3)cc2)cc1OC (racemic) [rac.-3',4'-Dimethoxy-N-[1-methyl-4-(3-pyridinyl)butyl][1,1'-biphenyl]-4-carbothioamide] | 60 nM | 24% | 100 to 1000 nM | 86 ± 7% | 37 ± 9% | 48% | –
COc1ccc(-c2ccc(C(=S)NCCCCc3cccnc3)cc2)cc1OC [3',4'-Dimethoxy-N-[4-(3-pyridinyl)butyl][1,1'-biphenyl]-4-carbothioamide] | – | 15% | 225 nM | – | – | – | 53%
Cc1ccc(-c2ccc(C(=O)NCCCCCCc3cccnc3)cc2)cc1C [3',4'-Dimethyl-N-[6-(3-pyridinyl)hexyl][1,1'-biphenyl]-4-carboxamide] | 450 nM | 27% | 600 nM | – | – | – | –
Cc1ccc(-c2ccc(-c3nnnn3CCCCc3cccnc3)cc2)cc1C [3-[4-[5-(3',4'-Dimethyl-[1,1'-biphenyl]-4-yl)-1H-tetrazol-1-yl]butyl]pyridine] | 800 nM | – | > 1000 nM | 57 ± 4% | – | – | –
Cc1ccc(-c2ccc(-c3nnnn3CCCCCCc3cccnc3)cc2)cc1C [3-[6-[5-(3',4'-Dimethyl-[1,1'-biphenyl]-4-yl)-1H-tetrazol-1-yl]hexyl]pyridine] | 200 nM | 0% | 100 to 1000 nM | 18 ± 13% | – | – | –

Reference: US4916145A, “Substituted n-[(pyridyl)alkyl]aryl-carboxamide” (Hoffmann-La Roche Inc., priority 1987, dated 1990)
